Source: ChEMBL document CHEMBL5465560, “Selectivity Literature for EUbOPEN Chemogenomic Library” (2024)
One block for each molecule: values may come before it.

Assays:
[1] = target: Angiopoietin-1 receptor (Homo sapiens) (UniProt Q02763); assay: Selectivity interaction (KinomeScan (DiscoverX)) EUB0000607a TEK; settings: at 10 µM
[2] = target: Sodium-dependent serotonin transporter (Homo sapiens, UniProt P31645); assay: Selectivity interaction (Panel of kinases, GPCRs, ion channels and transporters (enzymatic assay)) EUB0000266bCl SLC6A4
Chain of Sodium-dependent serotonin transporter (P31645 whole entry, looked up): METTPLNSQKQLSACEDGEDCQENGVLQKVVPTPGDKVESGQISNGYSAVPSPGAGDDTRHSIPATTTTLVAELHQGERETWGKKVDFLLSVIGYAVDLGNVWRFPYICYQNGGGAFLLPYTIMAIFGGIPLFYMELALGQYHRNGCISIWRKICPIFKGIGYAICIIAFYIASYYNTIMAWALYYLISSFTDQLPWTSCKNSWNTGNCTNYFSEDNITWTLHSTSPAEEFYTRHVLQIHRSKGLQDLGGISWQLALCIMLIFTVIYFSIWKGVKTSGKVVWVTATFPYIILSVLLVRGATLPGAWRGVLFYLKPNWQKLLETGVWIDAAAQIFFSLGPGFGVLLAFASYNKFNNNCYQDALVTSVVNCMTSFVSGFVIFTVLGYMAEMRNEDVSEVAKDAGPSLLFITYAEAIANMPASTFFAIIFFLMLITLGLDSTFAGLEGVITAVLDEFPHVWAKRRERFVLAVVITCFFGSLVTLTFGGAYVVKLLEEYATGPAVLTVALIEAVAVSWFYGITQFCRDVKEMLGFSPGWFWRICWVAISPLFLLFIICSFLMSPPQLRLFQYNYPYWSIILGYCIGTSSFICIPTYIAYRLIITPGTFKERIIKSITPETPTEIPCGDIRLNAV

Aurora kinase B = Aurora kinase B (Homo sapiens, UniProt Q96GD4); assay: Selectivity interaction (ActivX KiNativ screen (kinase selectivity in THP-1 cell lysates)) EUB0000639a AURKB; type: subcellular; settings: lysate, at 0.2 µM
[3] = target: Serine/threonine-protein kinase Nek7 (Homo sapiens) (UniProt Q8TDX7); assay: Selectivity interaction (ActivX KiNativ screen (kinase selectivity in THP-1 cell lysates)) EUB0000639a NEK7; type: subcellular; settings: lysate, at 0.01 µM
Chain of Serine/threonine-protein kinase Nek7 (Homo sapiens) (Q8TDX7 whole entry, looked up): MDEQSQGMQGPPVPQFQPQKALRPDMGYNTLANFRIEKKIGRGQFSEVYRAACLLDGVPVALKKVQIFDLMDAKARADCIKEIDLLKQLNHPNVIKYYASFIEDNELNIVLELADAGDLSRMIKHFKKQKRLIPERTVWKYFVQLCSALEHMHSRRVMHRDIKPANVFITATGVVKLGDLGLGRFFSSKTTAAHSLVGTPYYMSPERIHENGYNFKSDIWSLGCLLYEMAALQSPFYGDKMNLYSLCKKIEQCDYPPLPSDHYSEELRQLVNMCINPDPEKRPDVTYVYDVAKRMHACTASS

[4] = target: Ribosomal protein S6 kinase alpha-1 (Homo sapiens, UniProt Q15418); assay: Selectivity interaction (ActivX KiNativ screen (kinase selectivity in THP-1 cell lysates)) EUB0000639a RPS6KA1; type: subcellular; settings: lysate, at 0.01 µM
[5] = target: Tyrosine-protein kinase Lck (Homo sapiens, UniProt P06239); assay: Selectivity interaction (Panel of non-epigenetic targets (kinases, GPCRs, ion channels, and transporters, Eurofins) ) EUB0000271b LCK; settings: at 1 µM
Chain of Tyrosine-protein kinase Lck (P06239 2-509 limits assumed): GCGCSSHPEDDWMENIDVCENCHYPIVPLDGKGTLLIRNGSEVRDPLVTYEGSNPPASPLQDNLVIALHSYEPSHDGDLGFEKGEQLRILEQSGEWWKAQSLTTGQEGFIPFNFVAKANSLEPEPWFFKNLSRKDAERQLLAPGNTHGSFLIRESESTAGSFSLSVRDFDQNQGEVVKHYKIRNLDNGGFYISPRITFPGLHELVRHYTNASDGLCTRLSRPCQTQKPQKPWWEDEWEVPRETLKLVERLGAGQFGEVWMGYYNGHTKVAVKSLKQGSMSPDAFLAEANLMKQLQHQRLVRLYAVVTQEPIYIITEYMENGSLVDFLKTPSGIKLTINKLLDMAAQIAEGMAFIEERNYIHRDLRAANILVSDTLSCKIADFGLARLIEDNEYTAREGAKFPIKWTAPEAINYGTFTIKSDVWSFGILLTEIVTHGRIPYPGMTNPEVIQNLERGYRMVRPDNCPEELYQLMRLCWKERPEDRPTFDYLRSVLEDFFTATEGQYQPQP

[6] = target: Tyrosine-protein kinase Fes/Fps (Homo sapiens) (UniProt P07332); assay: Selectivity interaction (KinomeScan (DiscoverX)) EUB0001049a FES; settings: at 1 µM
[7] = target: T1, Serine/threonine-protein kinase TAO3 (Homo sapiens) (UniProt Q9H2K8); assay: Selectivity interaction (Ambit KINOMEscan and KiNATiv profiling in Jurkat cells) EUB0000090b TAOK3; type: cell-based; settings: at 1 µM
T1 sequence (whole entry): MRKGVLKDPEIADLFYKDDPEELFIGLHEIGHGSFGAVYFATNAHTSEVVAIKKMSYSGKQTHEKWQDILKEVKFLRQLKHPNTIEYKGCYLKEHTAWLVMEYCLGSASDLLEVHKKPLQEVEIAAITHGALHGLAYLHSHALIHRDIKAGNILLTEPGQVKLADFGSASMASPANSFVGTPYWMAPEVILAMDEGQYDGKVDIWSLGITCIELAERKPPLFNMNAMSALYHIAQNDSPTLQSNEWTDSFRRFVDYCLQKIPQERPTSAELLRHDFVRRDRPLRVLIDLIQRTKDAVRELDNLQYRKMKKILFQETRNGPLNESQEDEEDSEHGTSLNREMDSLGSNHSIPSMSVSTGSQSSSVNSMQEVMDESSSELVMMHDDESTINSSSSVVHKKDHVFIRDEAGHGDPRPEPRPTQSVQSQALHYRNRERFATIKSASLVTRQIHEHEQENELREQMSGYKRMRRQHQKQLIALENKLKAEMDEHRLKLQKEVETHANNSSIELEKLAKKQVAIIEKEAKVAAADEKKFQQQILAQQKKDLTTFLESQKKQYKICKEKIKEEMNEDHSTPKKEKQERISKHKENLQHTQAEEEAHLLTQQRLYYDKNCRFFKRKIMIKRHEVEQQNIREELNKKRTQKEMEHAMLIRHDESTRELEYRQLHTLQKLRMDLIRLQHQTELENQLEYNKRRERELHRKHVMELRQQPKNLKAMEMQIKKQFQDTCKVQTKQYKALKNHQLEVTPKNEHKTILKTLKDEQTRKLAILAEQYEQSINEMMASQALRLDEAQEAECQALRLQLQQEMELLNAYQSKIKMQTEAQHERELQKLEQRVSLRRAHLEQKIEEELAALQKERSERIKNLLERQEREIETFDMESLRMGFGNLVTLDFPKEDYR

D(2) dopamine receptor = D(2) dopamine receptor (Homo sapiens, UniProt P14416); assay: Selectivity interaction (Panel of kinases, GPCRs, ion channels and transporters (enzymatic assay)) EUB0000223bCl DRD2
Chain of D(2) dopamine receptor (P14416 whole entry): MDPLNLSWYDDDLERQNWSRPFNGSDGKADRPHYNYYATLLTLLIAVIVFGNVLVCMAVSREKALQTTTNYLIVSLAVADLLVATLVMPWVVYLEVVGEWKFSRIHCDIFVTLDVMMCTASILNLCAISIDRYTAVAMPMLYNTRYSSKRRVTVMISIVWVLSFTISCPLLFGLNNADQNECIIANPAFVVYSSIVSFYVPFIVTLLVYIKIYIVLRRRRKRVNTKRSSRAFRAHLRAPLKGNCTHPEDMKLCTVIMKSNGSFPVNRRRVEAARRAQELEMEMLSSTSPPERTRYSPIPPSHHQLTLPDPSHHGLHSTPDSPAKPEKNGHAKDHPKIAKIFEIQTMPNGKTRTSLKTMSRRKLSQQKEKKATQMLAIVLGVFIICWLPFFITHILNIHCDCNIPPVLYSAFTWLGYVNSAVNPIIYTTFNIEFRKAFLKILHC

[8] = target: T2, cGMP-dependent protein kinase 1 (Homo sapiens) (UniProt Q13976); assay: Selectivity interaction (KinomeScan (DiscoverX)) EUB0000655a PRKG1; settings: at 10 µM
T2 sequence (whole entry): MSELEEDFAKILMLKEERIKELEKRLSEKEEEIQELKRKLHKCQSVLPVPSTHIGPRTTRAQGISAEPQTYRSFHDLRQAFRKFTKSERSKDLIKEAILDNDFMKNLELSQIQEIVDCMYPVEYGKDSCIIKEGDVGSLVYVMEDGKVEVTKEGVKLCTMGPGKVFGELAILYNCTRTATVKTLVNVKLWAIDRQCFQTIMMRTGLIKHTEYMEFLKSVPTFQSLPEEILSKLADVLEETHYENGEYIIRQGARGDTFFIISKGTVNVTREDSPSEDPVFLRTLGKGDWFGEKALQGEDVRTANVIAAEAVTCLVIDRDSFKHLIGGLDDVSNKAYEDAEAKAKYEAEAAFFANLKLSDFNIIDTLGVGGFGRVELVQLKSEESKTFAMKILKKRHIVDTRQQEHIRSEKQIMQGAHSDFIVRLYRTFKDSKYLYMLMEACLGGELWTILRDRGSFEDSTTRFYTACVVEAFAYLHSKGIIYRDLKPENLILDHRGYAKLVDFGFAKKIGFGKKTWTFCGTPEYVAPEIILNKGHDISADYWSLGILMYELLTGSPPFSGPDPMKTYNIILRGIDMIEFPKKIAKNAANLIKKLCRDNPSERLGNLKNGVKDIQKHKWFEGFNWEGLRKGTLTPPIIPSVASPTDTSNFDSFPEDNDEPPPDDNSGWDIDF

[9] = target: Serine/threonine-protein kinase WNK1 (Homo sapiens) (UniProt Q9H4A3); assay: Selectivity interaction (Kinase panel (KiNativ target engagement assay in Jurkat cells)) EUB0001635a WNK1; type: cell-based; settings: at 1 µM
Chain of Serine/threonine-protein kinase WNK1 (Homo sapiens) (Q9H4A3 whole entry, looked up): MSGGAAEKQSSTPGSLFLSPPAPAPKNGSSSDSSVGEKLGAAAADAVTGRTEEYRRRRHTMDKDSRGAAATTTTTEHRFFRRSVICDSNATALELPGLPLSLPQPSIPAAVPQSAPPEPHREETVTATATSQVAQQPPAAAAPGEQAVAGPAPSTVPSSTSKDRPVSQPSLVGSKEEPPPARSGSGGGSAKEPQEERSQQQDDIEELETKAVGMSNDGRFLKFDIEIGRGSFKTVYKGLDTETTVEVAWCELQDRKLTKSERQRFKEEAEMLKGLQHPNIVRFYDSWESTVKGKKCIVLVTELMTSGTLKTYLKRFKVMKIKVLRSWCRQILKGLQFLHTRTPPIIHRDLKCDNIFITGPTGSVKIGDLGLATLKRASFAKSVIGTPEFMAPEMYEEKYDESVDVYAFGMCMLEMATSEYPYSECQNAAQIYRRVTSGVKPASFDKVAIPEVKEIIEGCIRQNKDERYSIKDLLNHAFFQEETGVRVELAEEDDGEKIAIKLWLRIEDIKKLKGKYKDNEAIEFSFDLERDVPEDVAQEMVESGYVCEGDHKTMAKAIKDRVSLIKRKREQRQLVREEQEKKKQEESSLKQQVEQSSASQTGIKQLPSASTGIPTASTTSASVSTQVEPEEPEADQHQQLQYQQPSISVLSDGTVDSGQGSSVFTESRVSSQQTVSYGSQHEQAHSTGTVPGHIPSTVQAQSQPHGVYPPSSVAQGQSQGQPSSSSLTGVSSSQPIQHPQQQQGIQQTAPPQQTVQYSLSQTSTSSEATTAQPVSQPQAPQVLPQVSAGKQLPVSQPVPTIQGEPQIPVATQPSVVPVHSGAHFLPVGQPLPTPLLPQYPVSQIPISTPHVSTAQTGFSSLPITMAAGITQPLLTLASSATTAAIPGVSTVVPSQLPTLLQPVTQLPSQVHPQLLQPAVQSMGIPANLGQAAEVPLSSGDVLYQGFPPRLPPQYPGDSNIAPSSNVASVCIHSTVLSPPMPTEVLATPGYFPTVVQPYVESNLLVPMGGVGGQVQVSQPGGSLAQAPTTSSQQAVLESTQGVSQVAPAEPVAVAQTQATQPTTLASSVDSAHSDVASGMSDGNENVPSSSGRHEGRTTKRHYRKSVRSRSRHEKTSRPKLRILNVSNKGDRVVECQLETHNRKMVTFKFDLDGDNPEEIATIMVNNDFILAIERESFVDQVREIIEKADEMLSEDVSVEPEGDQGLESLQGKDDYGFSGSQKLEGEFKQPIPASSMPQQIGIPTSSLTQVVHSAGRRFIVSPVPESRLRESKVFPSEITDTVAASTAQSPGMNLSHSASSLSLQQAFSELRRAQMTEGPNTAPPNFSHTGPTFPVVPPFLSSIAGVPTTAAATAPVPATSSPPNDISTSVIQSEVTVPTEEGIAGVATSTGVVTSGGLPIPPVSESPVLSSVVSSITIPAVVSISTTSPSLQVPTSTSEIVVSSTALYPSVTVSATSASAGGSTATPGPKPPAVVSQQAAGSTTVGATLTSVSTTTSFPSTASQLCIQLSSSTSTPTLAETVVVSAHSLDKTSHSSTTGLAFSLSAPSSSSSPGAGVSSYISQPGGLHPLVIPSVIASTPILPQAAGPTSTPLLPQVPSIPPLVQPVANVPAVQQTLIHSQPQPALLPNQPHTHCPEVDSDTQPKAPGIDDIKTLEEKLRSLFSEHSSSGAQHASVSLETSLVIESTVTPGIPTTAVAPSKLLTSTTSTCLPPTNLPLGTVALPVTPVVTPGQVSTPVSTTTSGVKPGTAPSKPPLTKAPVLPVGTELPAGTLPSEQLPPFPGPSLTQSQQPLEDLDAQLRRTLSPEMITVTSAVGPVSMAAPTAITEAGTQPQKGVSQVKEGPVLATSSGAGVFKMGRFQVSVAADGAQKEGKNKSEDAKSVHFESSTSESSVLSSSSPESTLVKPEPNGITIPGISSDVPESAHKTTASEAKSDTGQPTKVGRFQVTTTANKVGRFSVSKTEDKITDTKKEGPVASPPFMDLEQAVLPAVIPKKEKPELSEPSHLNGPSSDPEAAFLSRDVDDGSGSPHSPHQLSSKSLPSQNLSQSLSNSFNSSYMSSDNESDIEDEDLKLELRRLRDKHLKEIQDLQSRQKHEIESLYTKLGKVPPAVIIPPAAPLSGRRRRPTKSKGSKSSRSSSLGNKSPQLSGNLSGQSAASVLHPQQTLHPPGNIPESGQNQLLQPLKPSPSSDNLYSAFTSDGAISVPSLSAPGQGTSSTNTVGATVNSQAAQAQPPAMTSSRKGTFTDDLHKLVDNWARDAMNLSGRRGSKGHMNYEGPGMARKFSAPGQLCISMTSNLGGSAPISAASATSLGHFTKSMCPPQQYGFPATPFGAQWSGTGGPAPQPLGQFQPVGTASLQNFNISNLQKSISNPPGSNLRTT

[10] = target: SWI/SNF-related matrix-associated actin-dependent regulator of chromatin subfamily A member 2 (Homo sapiens, UniProt P51531); assay: Selectivity interaction (Bromodomain panel (DSF asssay)) EUB0000270b SMARCA2
[11] = target: Glycogen synthase kinase-3 alpha (Homo sapiens, UniProt P49840); assay: Selectivity interaction (KinomeScan (DiscoverX)) EUB0000229b GSK3A; settings: at 10 µM
Chain of Glycogen synthase kinase-3 alpha (P49840 2-483 limits assumed): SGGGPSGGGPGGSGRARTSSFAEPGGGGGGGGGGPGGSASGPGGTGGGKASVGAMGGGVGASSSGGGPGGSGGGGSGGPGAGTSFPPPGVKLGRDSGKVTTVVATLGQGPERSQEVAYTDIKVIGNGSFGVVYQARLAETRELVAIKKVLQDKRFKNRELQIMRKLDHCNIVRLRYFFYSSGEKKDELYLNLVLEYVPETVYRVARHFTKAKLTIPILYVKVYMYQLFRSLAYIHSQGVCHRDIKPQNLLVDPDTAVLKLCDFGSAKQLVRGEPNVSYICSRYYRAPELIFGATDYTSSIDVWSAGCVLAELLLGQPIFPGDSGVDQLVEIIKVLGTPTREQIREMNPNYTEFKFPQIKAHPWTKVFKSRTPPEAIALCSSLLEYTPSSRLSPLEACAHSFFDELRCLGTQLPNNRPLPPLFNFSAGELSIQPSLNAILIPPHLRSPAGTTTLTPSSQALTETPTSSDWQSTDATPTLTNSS

[12] = target: Hepatocyte growth factor receptor (Homo sapiens, UniProt P08581); settings: at 10 µM

Structure (SMILES): CNC(=O)Nc1ccc(-c2nc(N3CC4CCC(C3)O4)c3cnn(C4CCC5(CC4)OCCO5)c3n2)cc1
% of control [1]: 100%

pXC50 [2]: 4.7 M
Structure (SMILES): CCn1c(-c2nc3cc(C(=O)N4CCCC(N)C4)ccc3n2C)cc2ccccc21 (stereo not given)

% of inhibition (Aurora kinase B): -1% | % of inhibition [3]: -2.2% | % of inhibition [4]: 16.9%
Structure (SMILES): CC[C@@H]1[C@H](F)C(=O)N[C@@H]1COc1nccc2cc(C(N)=O)c(OC)cc12 [ZIMLOVISERTIB]

Structure (SMILES): Cc1cc(C)cc([C@@H]2c3cc(C)ccc3NC(=O)CN2C(=O)c2ccc(Br)s2)c1
% of inhibition [5]: 1%

Structure (SMILES): COc1cc(Nc2nc(C)cc(-c3cnn4nc(OC)ccc34)n2)cc(C(F)(F)F)c1
% of control [6]: 95%

Structure (SMILES): CN(C)C/C=C/C(=O)Nc1ccc(C(=O)N2CCCC(Nc3ncc(Cl)c(-c4c[nH]c5ccccc45)n3)C2)cc1 (stereo not given)
% of control [7]: 97%

Structure (SMILES): COc1cc(C(=O)N2CC[C@@H](O)[C@@H](N)C2)cc2nc(-c3cc4ccccc4n3CC3CC3)n(C)c12
pXC50 (D(2) dopamine receptor): < 4 M

Structure (SMILES): CN(C)CCOc1ccc(-c2nc(-c3ccncc3)c(-c3ccc4c(c3)CC/C4=N\O)[nH]2)cc1
% of control [8]: 89%

Structure (SMILES): C=CC(=O)Nc1ccc(C(=O)Nc2[nH]nc3c2CN(C(=O)N[C@H](CN(C)C)c2ccccc2)C3(C)C)cc1
% of engagement ([9]; Selectivity number of off-targets 0.0, Selectivity number of targets 233.0, Source Knowledge https://www.sciencedirect.com/science/article/pii/S2451945619300674?via%3Dihub): -16.3% | % of engagement [9]: -12.9%

dTM [10]: -0.5 K
Structure (SMILES): Cc1cc(CN)cc(C)c1-c1ncn(C)c1-c1cncn1C

Structure (SMILES): COc1cc(N(C)c2ccnc3ccc(C(F)(F)F)cc23)cc(OC)c1OC
% binding [11]: 93%

Structure (SMILES): Cc1cc([C@@H](C)Nc2ccccc2C(=O)O)c2nc(N3CCOCC3)cc(=O)n2c1 [AZD-6482]
% of control [12]: 86%
